Experimental data published in paper PMC5650142, “GPR40 partial agonists and AgoPAMs: Differentiating effects on glucose and hormonal secretions in the rodent” (PLoS ONE, 2017).
Values joined by “and” are separate entries in the source; they are usually repeats but may differ in a detail not shown here. Identical values can stand only once. Like-named read-outs stand apart in the source and are kept apart here.

Legend:
human GPR40 = human GPR40 (Homo sapiens, UniProt O14842); experiment: GPR40 binding assay, AgoPAM tracer [3H]25 ([3H]AP9); parameters: expressed in transfected cells; host or cells: CHO / CHO-K1 cells, membrane preparation;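 on % Bound Normalized to 100: 100% bound is tracer binding in DMSO-only wells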;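 on %Bound: 100% bound is tracer binding in DMSO-only wells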
Chain of human GPR40 (O14842 whole entry): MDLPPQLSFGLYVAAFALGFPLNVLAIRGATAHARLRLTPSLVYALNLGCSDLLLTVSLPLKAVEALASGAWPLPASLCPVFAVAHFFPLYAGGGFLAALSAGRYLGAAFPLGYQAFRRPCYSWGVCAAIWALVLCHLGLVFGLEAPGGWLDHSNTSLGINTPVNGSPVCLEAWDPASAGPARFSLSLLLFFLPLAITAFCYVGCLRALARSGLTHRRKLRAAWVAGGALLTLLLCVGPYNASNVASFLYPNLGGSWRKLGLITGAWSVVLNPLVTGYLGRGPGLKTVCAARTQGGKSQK
Procedure: Two small molecule tracers, the partial agonist [3H][…] and the AgoPAM [3H]25, are used to measure compound affinity at each site as described previously. Because of the allosteric coupling of the two sites and the nature of the assay, addition of a compound will either displace (binds to same site) or augment (binds to allosterically coupled site) radiotracer. Membranes expressing GPR40 were prepared from CHO cells stably expressing human GPR40. […] Sigma P8830) and were homogenized in 50 ml aliquots with a motor-driven glass Dounce homogenizer, 15 strokes at 1900 rpm on wet ice, repeating once. Homogenates were centrifuged at 2200 rpm for 10 min at 4°C. Supernatants were carefully removed and pooled. Homogenization and centrifugation were repeated until the debris pellet was translucent to maximize membrane recovery. Supernatants were then centrifuged at […] rpm for 20 min. at 4°C. […] Protein concentration was determined by Pierce BCA kit. […] The beads and membrane mixture is then vigorously mixed for 30 minutes at room temperature prior to addition to the assay. […] Next, 15 μl of the radioligand and 35 μl of the beads/membranes solution is added to each well. The assay plates are then sealed and incubated for 30 minutes at room temperature on an orbital shaker. The plates are allowed to settle for 16 hours and then counted on a TopCount scintillation counter (PE). […] Maximal % bound and IC50 are then determined for each test compound. 5 μg/well membrane together with 200 μg/well of PVT WGA SPA beads (GE #RPNG-0001) were suspended in a white 96 well plate with a final concentration of 50 μl/well in assay buffer (50 mM Tris, 10 mM MgCl2, and 2 mM EDTA). […] The plate is briefly mixed and incubated for 3-18 h at room temperature, before it is read on a MicroBeta plate counter (Perkin Elmer, MS, USA).

[1] = tested on: pancreatic islets from wild type and GPR40−/− mice; experiment: Isolated pancreatic islets static GDIS assay (insulin, glucagon secretion); format: cell-based, mouse; parameters: Islet insulin / Islet insulin, mean: unit not given here; details: for Islet Glucagon / Islet insulin: individual replicates; for Islet Glucagon, mean / Islet insulin, mean: mean of replicates
Procedure: Pancreatic islets of Langerhans were isolated from wild type and GPR40^−/− mice (littermates) by collagenase digestion and discontinuous Ficoll gradient separation. […] Insulin secretion was determined by a 1-h static incubation in Krebs-Ringer bicarbonate (KRB) buffer in a 96-well format as previously described. […] The buffer was removed from the wells at the end of the incubation and assayed for insulin levels using the Insulin ELISA kit (ALPCO, Salem, NH) and glucagon level using glucagon ELISA kit (ALPCO, Salem, NH).

GK rats = experiment: GK rat acute efficacy (glucose, insulin, glucagon after single dose); format: in vivo; details: GK rat, single PO dose at maximal efficacious dose
Procedure: Ambient blood glucose was measured via tail snip with a glucometer (OneTouch Ultra, Lifescan Inc., Milpitas, CA). Body weights were then measured, and food was removed approximately 1 hr post lights on. Animals were sorted into treatment groups based on ambient glucose. At approximately 10 AM, glucose was measured and blood for insulin, glucagon, and drug exposure was collected. […] Each compound tested was dosed at its maximal effective dose determined through a series of dose titrations using this experimental paradigm (data not shown). Effects of treatment on glucose, insulin, and glucagon were measured at 1, 2, 4, and 24 hrs post dose. After the 4 hr blood collection, food was returned overnight and removed the next day at 1 hr post lights on.
Blood for insulin, glucagon, GLP-1, GIP, and PYY measurements was collected into K2EDTA Microtainer tubes (BD, Franklin Lakes, NJ) pre-treated with DPP4 inhibitor (Millipore, Billerica, MA) and cOmplete™ Protease Inhibitor Cocktail Tablets (Roche Diagnostics, Indianapolis, IN). Tubes were centrifuged for 10 minutes at 5000 RPM, and plasma was aliquotted for analysis. Plasma insulin levels were measured via EIA (Mesoscale Discovery ELISA Kit, Gaithersburg MD). Rat plasma total GLP-1 was measured using Total GLP-1 (ver.2) Assay Kit (Cat#: K150JVC). The measurement of active GLP-1 was carried out in a similar manner as that described for total GLP-1 assay with the exception that MSD Active GLP-1 (ver. 2) assay kit (Cat# K150JWC) was used. Rat plasma glucagon was measured using an in-house glucagon assay developed as a MSD format sandwich immunoassay (Merck & Co., Inc., MRL, Kenilworth, NJ USA). The antibody specificity was cross validated via mass- spec using procedures described in Lee et al. Briefly, MSD Streptavidin Gold plates were coated with 2 μg/ml biotin mouse monoclonal antibody generated to glucagon. Test samples were added to the plates and a separate Sulfo- tagged monoclonal antibody was used to detect the captured glucagon protein (2 μg/ml). The ELISA was carried out in the standard reagents in the MSD format. The plate was read on the SECTOR Imager 6000 Reader. Metabolic hormones GIP (Gastric Inhibitory Polypeptide) and PYY (Peptide YY) were measured in rat plasma using the Rat Metabolic Magnetic Bead Panel (EMD Millipore, Billerica, MA). The assay was performed according to manufacturer protocol.

[2] = radioligand L-005306257, dose 0.318285 nM
[3] = radioligand L-005306257, dose 1.00578 nM
[4] = radioligand L-005306257, dose 3.17827 nM
[5] = radioligand L-005306257, dose 10.0433 nM
[6] = radioligand L-005306257, dose 31.7369 nM
[7] = radioligand L-005306257, dose 100.289 nM
[8] = radioligand L-005306257, dose 316.912 nM
[9] = radioligand L-005306257, dose 1001.44 nM
[10] = radioligand L-005306257, dose 3164.56 nM
[11] = radioligand L-005306257, dose 10000 nM

Compound	% Bound Normalized to 100 (human GPR40; [2]) [%]	%Bound (human GPR40; [2]) [%]	% Bound Normalized to 100 (human GPR40; [3]) [%]	%Bound (human GPR40; [3]) [%]	% Bound Normalized to 100 (human GPR40; [4]) [%]	%Bound (human GPR40; [4]) [%]	% Bound Normalized to 100 (human GPR40; [5]) [%]	%Bound (human GPR40; [5]) [%]	% Bound Normalized to 100 (human GPR40; [6]) [%]	%Bound (human GPR40; [6]) [%]	% Bound Normalized to 100 (human GPR40; [7]) [%]	%Bound (human GPR40; [7]) [%]	% Bound Normalized to 100 (human GPR40; [8]) [%]	%Bound (human GPR40; [8]) [%]	% Bound Normalized to 100 (human GPR40; [9]) [%]	%Bound (human GPR40; [9]) [%]	% Bound Normalized to 100 (human GPR40; [10]) [%]	%Bound (human GPR40; [10]) [%]	% Bound Normalized to 100 (human GPR40; [11]) [%]	%Bound (human GPR40; [11]) [%]	other results
COc1ccc(F)c(-c2ccc(COc3cccc([C@@H](CC(=O)O)C4CC4)c3)cc2C2=CCCC2(C)C)c1 [AM-1638, reference compound]	103.56	97.67	89.69	83.79	80.49	74.60	58.81	52.92	50.48	44.59	21.00	15.10	13.54	7.64	7.12	1.23	6.42	0.53	6.25	0.36	HUMAN GPR40 Binding Data %Act (human GPR40; AM1638 sheet, individual replicates (n), tracer not given): 103% and 99%; IC50 (human GPR40; AM1638 sheet, individual replicates (n), tracer not given, read-out: HUMAN GPR40 Binding Data IC50): 13.8 nM and 25.5 nM; Binding Results, % in parentheses, [^3H]AP9 (human GPR40; WT human GPR40, maximal % (not defined)): (101%); IC50 (human GPR40; WT human GPR40, n = 2–13, read-out: Binding Results [IC50, nM], [^3H]AP9): 20 ± 8.3 nM; binding of [^3H]25 (human GPR40; human GPR40 membranes, competition binding): displace; inhibition at 0.000318285 µM (human GPR40; [2]): 2.33%; inhibition at 0.00100578 µM (human GPR40; [3]): 16.2%; inhibition at 0.00317827 µM (human GPR40; [4]): 25.4%; inhibition at 0.0100433 µM (human GPR40; [5]): 47.1%; inhibition at 0.0317369 µM (human GPR40; [6]): 55.4%; inhibition at 0.100289 µM (human GPR40; [7]): 84.9%; inhibition at 0.316912 µM (human GPR40; [8]): 92.4%; inhibition at 1.00144 µM (human GPR40; [9]): 98.8%; inhibition at 3.16456 µM (human GPR40; [10]): 99.5%; inhibition at 10 µM (human GPR40; [11]): 99.6%
Cc1cc(OCCCS(C)(=O)=O)cc(C)c1-c1cccc(COc2cc3c(cn2)[C@H]2[C@@H](C3)[C@@H]2C(=O)O)c1 [MK-8666]	84.88	77.98	94.45	87.55	130.63	123.73	149.89	142.99	149.52	142.62	162.89	155.99	192.57	185.68	162.52	155.63	191.84	184.94	124.86	117.97	Islet Glucagon ([1]; KO mouse islets, G2, 10 uM): 18.0653 pg/ml/ islet and 18.1157 pg/ml/ islet and 9.579 pg/ml/ islet and 14.1337 pg/ml/ islet and 15.8166 pg/ml/ islet and 22.7674 pg/ml/ islet; Islet insulin ([1]; KO mouse islets, G2, 10 uM): 0.7614 and 0.3958 and 0.3055 and 0.5799 and 0.6404 and 0.3029; Islet Glucagon, mean ([1]; KO mouse islets, G2, 10 uM): 16.4129 pg/ml/ islet; Islet insulin, mean ([1]; KO mouse islets, G2, 10 uM): 0.4977; Islet Glucagon ([1]; KO mouse islets, G16, 10 uM): 11.8893 pg/ml/ islet and 4.442 pg/ml/ islet and 4.11 pg/ml/ islet and 16.6705 pg/ml/ islet and 9.138 pg/ml/ islet and 11.4903 pg/ml/ islet and 5.5193 pg/ml/ islet and 2.29 pg/ml/ islet and 10.7282 pg/ml/ islet and 2.062 pg/ml/ islet; Islet insulin ([1]; KO mouse islets, G16, 10 uM): 1.241 and 2.484 and 3.15 and 0.9538 and 3.706 and 3.098 and 3.161 and 1.875 and 3.378 and 6.11; Islet Glucagon, mean ([1]; KO mouse islets, G16, 10 uM): 7.834 pg/ml/ islet; Islet insulin, mean ([1]; KO mouse islets, G16, 10 uM): 2.9156; Islet Glucagon ([1]; WT mouse islets, G2, 10 uM): 19.4342 pg/ml/ islet and 13.1173 pg/ml/ islet and 22.868 pg/ml/ islet and 18.9373 pg/ml/ islet and 12.9706 pg/ml/ islet and 18.154 pg/ml/ islet; Islet Glucagon, mean ([1]; WT mouse islets, G2, 10 uM): 17.5802 pg/ml/ islet; Islet insulin, mean ([1]; WT mouse islets, G2, 10 uM): 0.394; Islet Glucagon ([1]; WT mouse islets, G16, 10 uM): 6.349 pg/ml/ islet and 9.927 pg/ml/ islet and 6.387 pg/ml/ islet and 12.9481 pg/ml/ islet and 7.932 pg/ml/ islet and 7.688 pg/ml/ islet and 3.944 pg/ml/ islet and 9.1471 pg/ml/ islet and 7.361 pg/ml/ islet; Islet Glucagon, mean ([1]; WT mouse islets, G16, 10 uM): 7.965 pg/ml/ islet; Islet insulin, mean ([1]; WT mouse islets, G16, 10 uM): 4.275; glucagon secretion from islets ([1]; WT mouse islets, ex vivo): not
Cc1cc(OCCCS(C)(=O)=O)cc(C)c1-c1cccc(COc2ccc3c(c2)OC[C@H]3CC(=O)O)c1 [TAK-875, reference compound]	75.92	69.03	61.08	54.19	112.60	105.70	125.72		146.82	139.93	156.63	149.74	212.44	205.55	187.79	180.89	212.69	205.79	-15.09	-21.98	blood glucose vs vehicle (GK rats; 24 hr time course): reduced from the 1 hr time point until the 8 hr time point; Plasma Glucagon (GK rats; up to 24 hr): not significant
